Measurements taken from ChEMBL document CHEMBL1177698, “Inhibition of protein kinase C-driven nuclear factor-kappaB activation: synthesis, structure-activity relationship, and pharmacological profiling of pathway specific benzimidazole probe molecules” (J Med Chem, 2010).
Converted amounts (≈) assume the structure as drawn. Each block holds one compound with its values, some of them ahead of it. The source made the active and inactive calls. The calls are words filed in the database; no cut-off is given here.

Key:
[1] = Drug level in mouse blood at 30 mg/kg, ip after 0.5 hrs by LC/MS analysis; type: ADME, organism-based; parameters: dose 30 mg/kg, route intraperitoneal; settings: whole blood, read-out: Drug uptake
[2] = target: T1, Inhibitor of nuclear factor kappa-B kinase subunit beta (Homo sapiens) (UniProt O14920); experiment: Inhibition of IKK-beta up to 8 uM
T1 sequence (whole entry): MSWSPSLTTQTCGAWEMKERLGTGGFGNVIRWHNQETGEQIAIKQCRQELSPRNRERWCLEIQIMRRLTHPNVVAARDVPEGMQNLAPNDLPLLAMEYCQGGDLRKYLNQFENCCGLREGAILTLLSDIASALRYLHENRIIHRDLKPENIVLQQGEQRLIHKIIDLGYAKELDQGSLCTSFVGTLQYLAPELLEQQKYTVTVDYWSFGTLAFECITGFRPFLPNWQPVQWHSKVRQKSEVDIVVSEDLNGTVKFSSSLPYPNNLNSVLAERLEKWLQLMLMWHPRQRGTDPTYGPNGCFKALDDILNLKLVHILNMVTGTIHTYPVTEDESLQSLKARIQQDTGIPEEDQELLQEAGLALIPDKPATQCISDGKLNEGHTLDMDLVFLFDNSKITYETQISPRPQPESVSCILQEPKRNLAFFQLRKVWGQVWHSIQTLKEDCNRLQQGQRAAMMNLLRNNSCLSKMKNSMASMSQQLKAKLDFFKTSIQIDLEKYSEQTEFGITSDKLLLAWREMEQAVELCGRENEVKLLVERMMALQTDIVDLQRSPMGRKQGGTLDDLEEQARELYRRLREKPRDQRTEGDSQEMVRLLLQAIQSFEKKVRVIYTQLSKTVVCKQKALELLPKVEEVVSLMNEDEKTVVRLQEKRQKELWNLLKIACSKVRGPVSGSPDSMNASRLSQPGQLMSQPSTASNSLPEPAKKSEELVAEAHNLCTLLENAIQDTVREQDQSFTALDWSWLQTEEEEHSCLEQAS

[3] = Drug level in mouse blood at 30 mg/kg, ip after 3 hrs by LC/MS analysis; type: ADME, organism-based; parameters: dose 30 mg/kg, route intraperitoneal; settings: whole blood, read-out: Drug uptake
[4] = Metabolic stability in mouse liver microsomes assessed as compound remaining at 10 uM after 1 hr by LC/MS/MS analysis; type: ADME, Microsome; settings: read-out: Stability
[5] = Permeability at 50 uM at pH 5 by PAMPA; type: ADME; settings: pH 5, 50 µM
HEK293 = experiment: Inhibition of NF-kappaB activation transfected in TNF-alpha-stimulated HEK293 cells after 16 hrs by luciferase reporter gene assay; type: cell-based
[6] = Aqueous solubility at pH 6.2 after 18 hrs by UV kinetic solubility method; type: physicochemical; settings: aqueous medium
[7] = Metabolic stability in human liver microsomes assessed as compound remaining at 1 uM after 1 hr by LC/MS/MS analysis; type: ADME, Microsome; settings: read-out: Stability
[8] = Cytotoxicity against human Fa2N-4 cells after 24 hrs by ATP-lite 1-step assay; type: cell-based; settings: read-out: LD50
[9] = Cytotoxicity against human HEK293 cells after 24 hrs by ATP-lite 1-step assay; type: cell-based; settings: read-out: LD50
[10] = Metabolic stability in mouse liver microsomes assessed as compound remaining at 1 uM after 1 hr by LC/MS/MS analysis; type: ADME, Microsome; settings: read-out: Stability
[11] = Drug level in mouse blood at 10 mg/kg, ip after 0.5 hrs by LC/MS analysis; type: ADME, organism-based; parameters: dose 10 mg/kg, route intraperitoneal; settings: whole blood, read-out: Drug uptake
[12] = Metabolic stability in human liver microsomes assessed as compound remaining at 10 uM after 1 hr by LC/MS/MS analysis; type: ADME, Microsome; settings: read-out: Stability
[13] = Drug level in mouse blood at 10 mg/kg, ip after 3 hrs by LC/MS analysis; type: ADME, organism-based; parameters: dose 10 mg/kg, route intraperitoneal; settings: whole blood, read-out: Drug uptake
[14] = Aqueous solubility at pH 5 after 18 hrs by UV kinetic solubility method; type: physicochemical; settings: aqueous medium
[15] = Permeability at 50 uM at pH 6.2 by PAMPA; type: ADME; settings: pH 6.2, 50 µM
[16] = target: RAF proto-oncogene serine/threonine-protein kinase (Homo sapiens) (UniProt P04049); experiment: Inhibition of raf kinase at 10 uM
RAF proto-oncogene serine/threonine-protein kinase (Homo sapiens), sequence (P04049 whole entry): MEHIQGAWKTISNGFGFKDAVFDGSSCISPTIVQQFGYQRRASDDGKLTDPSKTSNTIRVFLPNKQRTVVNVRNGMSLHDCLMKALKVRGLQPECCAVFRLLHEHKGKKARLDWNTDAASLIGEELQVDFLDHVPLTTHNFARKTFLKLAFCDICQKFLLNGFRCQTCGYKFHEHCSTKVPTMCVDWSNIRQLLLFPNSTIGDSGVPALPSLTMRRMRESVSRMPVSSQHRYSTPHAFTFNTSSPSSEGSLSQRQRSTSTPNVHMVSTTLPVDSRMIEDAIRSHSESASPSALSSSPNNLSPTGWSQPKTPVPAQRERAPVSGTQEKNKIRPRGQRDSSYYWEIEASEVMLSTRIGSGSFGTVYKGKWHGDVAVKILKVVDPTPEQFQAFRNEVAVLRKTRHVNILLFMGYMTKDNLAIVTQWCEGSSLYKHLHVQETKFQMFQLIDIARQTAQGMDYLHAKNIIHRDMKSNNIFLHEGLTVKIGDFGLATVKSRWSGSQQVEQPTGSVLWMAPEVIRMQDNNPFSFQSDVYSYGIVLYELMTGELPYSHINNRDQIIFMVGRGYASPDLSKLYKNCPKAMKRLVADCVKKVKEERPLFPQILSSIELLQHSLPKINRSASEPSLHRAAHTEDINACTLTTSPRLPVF

[17] = target: T2, Serine/threonine-protein kinase tousled-like 1 (Homo sapiens) (UniProt Q9UKI8); experiment: Inhibition of TLK1 at 10 uM
T2 sequence (whole entry): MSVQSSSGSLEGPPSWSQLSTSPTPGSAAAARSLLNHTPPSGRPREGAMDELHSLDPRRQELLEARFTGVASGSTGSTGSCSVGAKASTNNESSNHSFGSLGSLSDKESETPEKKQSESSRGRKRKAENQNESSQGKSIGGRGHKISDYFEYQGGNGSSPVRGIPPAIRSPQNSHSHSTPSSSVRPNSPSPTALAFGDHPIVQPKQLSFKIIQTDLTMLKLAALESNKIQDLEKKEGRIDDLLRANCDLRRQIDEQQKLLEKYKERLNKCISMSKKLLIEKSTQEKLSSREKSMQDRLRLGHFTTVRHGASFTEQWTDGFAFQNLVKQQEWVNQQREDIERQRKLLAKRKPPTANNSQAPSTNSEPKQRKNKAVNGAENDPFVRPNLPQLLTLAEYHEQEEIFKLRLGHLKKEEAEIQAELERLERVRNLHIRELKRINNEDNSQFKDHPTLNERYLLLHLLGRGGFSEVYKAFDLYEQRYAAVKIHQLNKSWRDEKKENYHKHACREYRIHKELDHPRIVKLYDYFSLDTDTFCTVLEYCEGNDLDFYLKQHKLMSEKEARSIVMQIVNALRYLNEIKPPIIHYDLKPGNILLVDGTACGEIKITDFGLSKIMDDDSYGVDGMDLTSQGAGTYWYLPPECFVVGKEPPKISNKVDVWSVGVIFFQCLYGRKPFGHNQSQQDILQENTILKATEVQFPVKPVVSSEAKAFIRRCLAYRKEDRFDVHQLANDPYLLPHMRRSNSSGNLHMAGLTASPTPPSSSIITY

[18] = target: Protein kinase C beta type (Homo sapiens) (UniProt P05771); experiment: Inhibition of PKCbeta up to 8 uM
Protein kinase C beta type (Homo sapiens), sequence (P05771 2-671 limits assumed): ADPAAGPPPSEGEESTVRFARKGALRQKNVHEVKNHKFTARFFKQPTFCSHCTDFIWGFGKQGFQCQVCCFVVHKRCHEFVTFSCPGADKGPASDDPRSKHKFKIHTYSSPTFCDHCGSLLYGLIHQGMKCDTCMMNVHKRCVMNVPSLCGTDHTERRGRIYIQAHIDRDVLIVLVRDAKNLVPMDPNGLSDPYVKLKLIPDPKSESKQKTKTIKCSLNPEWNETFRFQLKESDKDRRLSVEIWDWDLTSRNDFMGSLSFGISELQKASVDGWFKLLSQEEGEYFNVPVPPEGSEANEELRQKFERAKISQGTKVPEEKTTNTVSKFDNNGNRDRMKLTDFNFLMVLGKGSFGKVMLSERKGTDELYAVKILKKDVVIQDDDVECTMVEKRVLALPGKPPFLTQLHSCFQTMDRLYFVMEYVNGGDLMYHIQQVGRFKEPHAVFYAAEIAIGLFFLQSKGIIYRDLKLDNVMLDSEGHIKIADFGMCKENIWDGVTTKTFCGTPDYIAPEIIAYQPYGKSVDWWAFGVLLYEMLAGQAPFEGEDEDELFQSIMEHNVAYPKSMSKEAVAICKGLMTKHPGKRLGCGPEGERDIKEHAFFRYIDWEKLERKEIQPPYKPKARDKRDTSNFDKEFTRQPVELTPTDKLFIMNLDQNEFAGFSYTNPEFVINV

[19] = Aqueous solubility at pH 7.4 after 18 hrs by UV kinetic solubility method; type: physicochemical; settings: aqueous medium
[20] = Permeability at 50 uM at pH 7.4 by PAMPA; type: ADME; settings: pH 7.4, 50 µM
[21] = target: Tyrosine-protein kinase JAK2 (Homo sapiens) (UniProt O60674); experiment: Inhibition of JAK2 at 10 uM
Tyrosine-protein kinase JAK2 (Homo sapiens), sequence (O60674 whole entry): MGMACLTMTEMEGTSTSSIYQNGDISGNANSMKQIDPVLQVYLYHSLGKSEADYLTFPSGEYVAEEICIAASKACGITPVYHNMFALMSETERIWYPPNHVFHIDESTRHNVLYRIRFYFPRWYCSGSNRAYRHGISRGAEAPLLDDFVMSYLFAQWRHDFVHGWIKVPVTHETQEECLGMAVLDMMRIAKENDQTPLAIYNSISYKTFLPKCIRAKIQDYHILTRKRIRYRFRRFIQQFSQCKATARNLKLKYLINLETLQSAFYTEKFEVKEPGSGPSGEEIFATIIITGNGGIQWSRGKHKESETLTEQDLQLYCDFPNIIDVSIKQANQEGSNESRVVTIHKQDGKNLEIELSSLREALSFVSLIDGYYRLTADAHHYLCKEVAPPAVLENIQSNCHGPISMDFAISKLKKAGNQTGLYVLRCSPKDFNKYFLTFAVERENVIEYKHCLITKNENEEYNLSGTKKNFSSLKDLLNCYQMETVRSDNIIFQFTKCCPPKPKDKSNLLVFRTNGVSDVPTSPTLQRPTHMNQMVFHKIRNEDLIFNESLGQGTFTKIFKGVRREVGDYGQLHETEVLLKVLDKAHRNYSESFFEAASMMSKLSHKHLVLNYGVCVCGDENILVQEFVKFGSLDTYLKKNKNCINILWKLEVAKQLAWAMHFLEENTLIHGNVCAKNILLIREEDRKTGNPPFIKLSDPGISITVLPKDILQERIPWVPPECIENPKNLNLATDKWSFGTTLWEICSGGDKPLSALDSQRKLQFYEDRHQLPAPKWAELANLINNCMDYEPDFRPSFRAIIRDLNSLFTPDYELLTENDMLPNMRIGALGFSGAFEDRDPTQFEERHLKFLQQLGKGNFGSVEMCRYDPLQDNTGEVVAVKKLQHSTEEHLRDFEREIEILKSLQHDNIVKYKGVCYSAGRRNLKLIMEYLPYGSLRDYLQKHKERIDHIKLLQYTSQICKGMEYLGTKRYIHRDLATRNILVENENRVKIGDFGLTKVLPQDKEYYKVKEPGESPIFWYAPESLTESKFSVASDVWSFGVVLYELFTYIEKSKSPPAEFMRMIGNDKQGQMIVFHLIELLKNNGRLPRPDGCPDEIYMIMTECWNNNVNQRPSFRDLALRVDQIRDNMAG

[22] = Drug level in mouse blood at 50 mg/kg, ip after 0.5 hrs by LC/MS analysis; type: ADME, organism-based; parameters: dose 50 mg/kg, route intraperitoneal; settings: whole blood, read-out: Drug uptake
[23] = target: Protein kinase C theta type (Homo sapiens) (UniProt Q04759); experiment: Inhibition of PKCtheta up to 8 uM
Protein kinase C theta type (Homo sapiens), sequence (Q04759 whole entry, looked up): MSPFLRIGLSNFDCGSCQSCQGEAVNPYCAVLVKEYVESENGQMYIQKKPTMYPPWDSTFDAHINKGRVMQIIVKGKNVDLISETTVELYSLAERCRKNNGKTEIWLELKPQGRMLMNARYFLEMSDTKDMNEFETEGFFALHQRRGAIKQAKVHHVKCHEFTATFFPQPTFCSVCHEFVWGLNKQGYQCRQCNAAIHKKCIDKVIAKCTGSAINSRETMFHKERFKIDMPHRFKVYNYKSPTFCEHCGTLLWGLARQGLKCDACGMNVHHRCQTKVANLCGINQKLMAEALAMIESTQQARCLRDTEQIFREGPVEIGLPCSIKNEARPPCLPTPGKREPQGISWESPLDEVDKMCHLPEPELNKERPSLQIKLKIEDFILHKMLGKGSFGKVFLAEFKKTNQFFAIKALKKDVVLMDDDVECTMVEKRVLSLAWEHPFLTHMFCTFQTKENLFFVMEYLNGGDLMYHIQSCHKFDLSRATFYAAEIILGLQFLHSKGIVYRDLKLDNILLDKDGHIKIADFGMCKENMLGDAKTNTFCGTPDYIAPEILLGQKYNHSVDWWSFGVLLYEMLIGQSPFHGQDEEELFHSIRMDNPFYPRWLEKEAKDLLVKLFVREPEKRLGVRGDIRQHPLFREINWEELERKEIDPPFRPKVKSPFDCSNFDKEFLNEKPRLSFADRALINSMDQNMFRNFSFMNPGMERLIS

[24] = Drug level in mouse blood at 50 mg/kg, ip after 3 hrs by LC/MS analysis; type: ADME, organism-based; parameters: dose 50 mg/kg, route intraperitoneal; settings: whole blood, read-out: Drug uptake
[25] = Inhibition of NF-kappaB activation transfected in PMA-stimulated HEK293 cells after 16 hrs by luciferase reporter gene assay; type: cell-based; settings: HEK293, 16 h

Compound: Cc1cc2nc(NCCCO)n(CC(=O)c3cc(C(C)(C)C)c(O)c(C(C)(C)C)c3)c2cc1C
concentration at 0.5 h [1]: 8.28 µM | inhibition [2]: inactive | concentration at 3 h [3]: 3.64 µM | remaining at 1 h, 10 µM [4]: 19% | permeability [5]: 299 ×10⁻⁶ cm/s | inhibition (HEK293): inactive | solubility kinetic at 18 h [6]: 0.5 µg/mL (≈ 1.07 µM) | remaining at 1 h, 1 µM [7]: 26% | CC50 at 24 h [8]: 47 µM | CC50 at 24 h [9]: 40 µM | remaining at 1 h, 1 µM [10]: 0.5% | concentration at 0.5 h [11]: 1.81 µM | remaining at 1 h, 10 µM [12]: 55% | concentration at 3 h [13]: 0.5 µM | solubility kinetic at 18 h [14]: 42 µg/mL (≈ 90.2 µM) | permeability [15]: 710 ×10⁻⁶ cm/s | inhibition [16]: 57% | inhibition [17]: 70% | inhibition [18]: inactive | solubility kinetic at 18 h [19]: 0.7 µg/mL (≈ 1.5 µM) | permeability [20]: 441 ×10⁻⁶ cm/s | inhibition [21]: 53% | concentration at 0.5 h [22]: 5.93 µM | inhibition [23]: inactive | concentration at 3 h [24]: 6.96 µM

Compound: CC(C)(C)c1cc(C(=O)Cn2c(NCCCO)nc3cc([N+](=O)[O-])ccc32)cc(C(C)(C)C)c1O
IC50 [25]: 2 µM

Compound: COCCCNc1nc2cc(C)c(C)cc2n1CC(=O)c1cc(C(C)(C)C)c(O)c(C(C)(C)C)c1
IC50 [25]: 0.3 µM

Compound: CC(C)(C)c1cc(C(=O)Cn2c(NCCCO)nc3ccc(Br)cc32)cc(C(C)(C)C)c1O
IC50 [25]: 6 µM

Compound: Cc1cc2nc(NCCCO)n(CC(=O)c3cccc(OC(C)(C)C)c3)c2cc1C
IC50 [25]: 16 µM

Compound: CC(C)(C)c1cc(C(=O)Cn2c(NCCCO)nc3cc(Br)ccc32)cc(C(C)(C)C)c1O
IC50 [25]: 3 µM

Compound: CCCCNc1nc2cc(C)c(C)cc2n1CC(=O)c1cc(C(C)(C)C)c(O)c(C(C)(C)C)c1
IC50 [25]: 0.8 µM

Compound: Cc1cc2nc(NC3CCC(O)CC3)n(CC(=O)c3cc(C(C)(C)C)c(O)c(C(C)(C)C)c3)c2cc1C (configuration not stated)
IC50 [25]: 0.1 µM

Second part, the compound after the results:

IC50 [25]: 13 µM
Compound: Cc1cc2nc(N3CCC(O)CC3)n(CC(=O)c3cc(C(C)(C)C)c(O)c(C(C)(C)C)c3)c2cc1C

IC50 [25]: 0.3 µM
Compound: CNc1nc2cc(C)c(C)cc2n1CC(=O)c1cc(C(C)(C)C)c(O)c(C(C)(C)C)c1

IC50 [25]: 11 µM
Compound: Cc1cc2nc(NCCCO)n(CC(=O)c3cccc(C(C)(C)C)c3)c2cc1C

IC50 [25]: 0.8 µM
Compound: CC(C)(C)c1cc(C(=O)Cn2c(NCCCO)nc3cc(N)ccc32)cc(C(C)(C)C)c1O

IC50 [25]: 1.8 µM
Compound: CC(C)(C)c1cc(C(=O)Cn2c(NCCCO)nc3cc(C(=O)c4ccccc4)ccc32)cc(C(C)(C)C)c1O

IC50 [25]: 0.1 µM
Compound: Cc1cc2nc(NCCCO)n(CC(=O)c3cc(C(C)(C)C)cc(C(C)(C)C)c3)c2cc1C

IC50 [25]: 0.4 µM
Compound: CC(C)(C)c1cc(C(=O)Cn2c(NCCCO)nc3ccc(N)cc32)cc(C(C)(C)C)c1O

IC50 [25]: 0.9 µM
Compound: CC(C)(C)c1cc(C(=O)Cn2c(NCCCO)nc3ccc(-c4ccccc4)cc32)cc(C(C)(C)C)c1O

IC50 [25]: 0.6 µM
Compound: CC(C)(C)c1cc(C(=O)Cn2c(NCCCO)nc3cc(-c4ccccc4)ccc32)cc(C(C)(C)C)c1O

IC50 [25]: > 8 µM
Compound: CC(C)(C)c1cc(C(=O)Cn2c(NCCCO)nc3ccc([N+](=O)[O-])cc32)cc(C(C)(C)C)c1O
